According to patent US20250000843A1, “LIGNAN-INSPIRED COMPOUNDS, METHODS OF MAKING, AND USING THEREOF” (IOWAIBO, INC., priority 2023, published 2025):

Legend:
[1] = system: MCF7 (human breast cancer cell line); assay: MTT toxicity assay in MCF7 breast cancer cells; format: cell-based
Method: Toxicity of the dibenzyl butyl lactone derivative (3-[(3,4-dimethoxyphenyl)cyclopentyl], 4-[(3-hydroxyphenol)methyl]oxolan-2-one) in breast cancer cells was evaluated using MTT assay. The MTT toxicity test is a colorimetric assay to measure cells' metabolic activity by serving as a substrate of cellular enzymes that reduce the tetrazolium orange dye, MTT (3-(4,5-Dimethylthiazol-2-yl)-2,5-diphenyltetrazolium bromide) to its insoluble, formazan, giving a purple color. The rate of conversion is directly proportional to cells' mitochondrial metabolic activity via NAD (P) H-dependent cellular oxidoreductase enzymes and serves as a surrogate marker of cell viability.
Cultures of MCF7 (human breast cancer cell line) working stock (5 passages) were established under standard culture conditions in Eagle's minimum essential medium (EMEM). EMEM was supplemented with 10% fetal bovine serum (FBS), 2 mM Glutamine and Pen/Strep, and Penicillin 0.01 mg/ml.
Cells previously expanded were seeded in 96 well plates at 1.9×10^5 and 9.6×10^4 cells/plate for 24- and 72-hours treatment respectively. This concentration is known to show the best window for the MTT assay, with better sensitivity and low variability.
5 mg of powdered enterolactone, dibenzyl butyl lactone derivative enantiomer A, and dibenzyl butyl lactone derivative enantiomer B were dissolved in 500 μl of DMSO at room temperature. Eight-point curves, ⅓ dilutions (highest concentration 125 μM), were prepared.
Twenty-four hours following the seeding process, the cells were washed once with phosphate buffered saline (PBS) and treated with the respective compounds in cell culture media. Each condition was tested in triplicates. For positive and negative controls, 8 mM methyl methane sulfonate (MMS) and DMSO 100% were used respectively.
Following compound addition, the plates were incubated for 24 and 72 hours. After the treatment period, cells were washed twice with PBS and media was replaced with MTT reagent at 0.5 mg/ml in Dulbecco's modified Eagle medium (DMEM) without phenol red. The plates were gently shaken and incubated for 4 hours. After the incubation the medium was removed and replaced by DMSO. The plates were gently shaken to solubilize the formazan crystals. Absorbance was measured using an Envision multiplate reader at a wavelength of 570 nm.
Eight serial dilutions were prepared (125.00, 41.67, 13.89, 4.63, 1.54, 0.51, 0.17 and 0.06 µM to evaluate the compounds (in triplicate). MTT results showing cell death values above 20% are considered as having a significant toxic effect.
MTT assay results are shown in Tables 2-7 and expressed as the percentage of cell death after treatment.

[2] = system: human induced pluripotent stem (iPS) cells; format: cell-based
Method: The dibenzyl butyl lactone derivative enantiomer A and B were compared to enterolactone and tested to determine toxicity using a human pluripotent stem (hPS) cell-based assay that predicts the developmental toxicity potential. […] The current study was conducted using human induced pluripotent stem (iPS) cells.
The impact of test article exposure on ornithine and cystine metabolism in human induced pluripotent stem (iPS) cells was measured for three test articles (dibenzyl butyl lactone derivative enantiomer A, dibenzyl butyl lactone derivative enantiomer B, and enterolactone) and prediction of the potential for developmental toxicity was made through application of the hPS cell-based assay. Exposure spanned a range of eight treatment levels per test article ranging from 0.03-100 μM.
The observed decrease in the o/c ratio following exposure to each test article is indicative of the potential for developmental toxicity and/or embryo lethality in vivo at or above the dTP concentration. FIGS. 15A-C show the o/c ratio of dibenzyl butyl lactone derivative enantiomer A (FIG. 15A), dibenzyl butyl lactone derivative enantiomer B (FIG. 15B), and (+/−) enterolactone (FIG. 15C). The graphs in FIGS. 15A-C show the cell viability and o/c/ ratio over concentrations of 0.03-100 μM with the straight horizontal line illustrating the developmental toxicity threshold of 0.85.

SMILES: O=C1OC[C@H](Cc2cccc(O)c2)[C@H]1Cc1cccc(O)c1 (racemic) [Enterolactone, reference compound]
- Cell death #1 (%) ([1]; MCF7, 24 hours, 0.06 μM): −11.97%
- Cell death #2 (%) ([1]; MCF7, 24 hours, 0.06 μM): −41.20%
- Cell death #3 (%) ([1]; MCF7, 24 hours, 0.06 μM): −33.13%
- Cell death (%) MEAN ([1]; MCF7, 24 hours, 0.06 μM): −28.77%
- Cell death #1 (%) ([1]; MCF7, 24 hours, 0.17 μM): −14.66%
- Cell death #2 (%) ([1]; MCF7, 24 hours, 0.17 μM): −12.36%
- Cell death #3 (%) ([1]; MCF7, 24 hours, 0.17 μM): −5.43%
- Cell death (%) MEAN ([1]; MCF7, 24 hours, 0.17 μM): −10.82%
- Cell death #1 (%) ([1]; MCF7, 24 hours, 0.51 μM): 2.26%
- Cell death #2 (%) ([1]; MCF7, 24 hours, 0.51 μM): −23.51%
- Cell death #3 (%) ([1]; MCF7, 24 hours, 0.51 μM): −19.28%
- Cell death (%) MEAN ([1]; MCF7, 24 hours, 0.51 μM): −13.51%
- Cell death #1 (%) ([1]; MCF7, 24 hours, 1.54 μM): −16.20%
- Cell death #2 (%) ([1]; MCF7, 24 hours, 1.54 μM): −16.97%
- Cell death #3 (%) ([1]; MCF7, 24 hours, 1.54 μM): −21.20%
- Cell death (%) MEAN ([1]; MCF7, 24 hours, 1.54 μM): −18.13%
- Cell death #1 (%) ([1]; MCF7, 24 hours, 4.63 μM): −5.05%
- Cell death #2 (%) ([1]; MCF7, 24 hours, 4.63 μM): −19.28%
- Cell death #3 (%) ([1]; MCF7, 24 hours, 4.63 μM): −25.82%
- Cell death (%) MEAN ([1]; MCF7, 24 hours, 4.63 μM): −16.71%
- Cell death #1 (%) ([1]; MCF7, 24 hours, 13.89 μM): −10.05%
- Cell death #2 (%) ([1]; MCF7, 24 hours, 13.89 μM): −8.13%
- Cell death #3 (%) ([1]; MCF7, 24 hours, 13.89 μM): −3.51%
- Cell death (%) MEAN ([1]; MCF7, 24 hours, 13.89 μM): −7.23%
- Cell death #1 (%) ([1]; MCF7, 24 hours, 41.67 μM): −30.05%
- Cell death #2 (%) ([1]; MCF7, 24 hours, 41.67 μM): −30.43%
- Cell death #3 (%) ([1]; MCF7, 24 hours, 41.67 μM): −40.43%
- Cell death (%) MEAN ([1]; MCF7, 24 hours, 41.67 μM): −33.64%
- Cell death #1 (%) ([1]; MCF7, 24 hours, 125.00 μM): −13.51%
- Cell death #2 (%) ([1]; MCF7, 24 hours, 125.00 μM): −8.13%
- Cell death #3 (%) ([1]; MCF7, 24 hours, 125.00 μM): 7.64%
- Cell death (%) MEAN ([1]; MCF7, 24 hours, 125.00 μM): −4.66%
- Cell death #1 (%) ([1]; MCF7, 72 hours, 0.06 μM): −30.40%
- Cell death #2 (%) ([1]; MCF7, 72 hours, 0.06 μM): −23.70%
- Cell death #3 (%) ([1]; MCF7, 72 hours, 0.06 μM): −42.46%
- Cell death (%) MEAN ([1]; MCF7, 72 hours, 0.06 μM): −32.19%
- Cell death #1 (%) ([1]; MCF7, 72 hours, 0.17 μM): −67.59%
- Cell death #2 (%) ([1]; MCF7, 72 hours, 0.17 μM): −62.23%
- Cell death #3 (%) ([1]; MCF7, 72 hours, 0.17 μM): −65.91%
- Cell death (%) MEAN ([1]; MCF7, 72 hours, 0.17 μM): −65.24%
- Cell death #1 (%) ([1]; MCF7, 72 hours, 0.51 μM): −66.25%
- Cell death #2 (%) ([1]; MCF7, 72 hours, 0.51 μM): −61.22%
- Cell death #3 (%) ([1]; MCF7, 72 hours, 0.51 μM): −61.89%
- Cell death (%) MEAN ([1]; MCF7, 72 hours, 0.51 μM): −63.12%
- Cell death #1 (%) ([1]; MCF7, 72 hours, 1.54 μM): −70.27%
- Cell death #2 (%) ([1]; MCF7, 72 hours, 1.54 μM): −54.19%
- Cell death #3 (%) ([1]; MCF7, 72 hours, 1.54 μM): −60.89%
- Cell death (%) MEAN ([1]; MCF7, 72 hours, 1.54 μM): −61.78%
- Cell death #1 (%) ([1]; MCF7, 72 hours, 4.63 μM): −53.85%
- Cell death #2 (%) ([1]; MCF7, 72 hours, 4.63 μM): −66.92%
- Cell death #3 (%) ([1]; MCF7, 72 hours, 4.63 μM): −69.26%
- Cell death (%) MEAN ([1]; MCF7, 72 hours, 4.63 μM): −63.34%
- Cell death #1 (%) ([1]; MCF7, 72 hours, 13.89 μM): −48.83%
- Cell death #2 (%) ([1]; MCF7, 72 hours, 13.89 μM): −38.44%
- Cell death #3 (%) ([1]; MCF7, 72 hours, 13.89 μM): −39.11%
- Cell death (%) MEAN ([1]; MCF7, 72 hours, 13.89 μM): −42.13%
- Cell death #1 (%) ([1]; MCF7, 72 hours, 41.67 μM): −22.36%
- Cell death #2 (%) ([1]; MCF7, 72 hours, 41.67 μM): −24.04%
- Cell death #3 (%) ([1]; MCF7, 72 hours, 41.67 μM): −22.70%
- Cell death (%) MEAN ([1]; MCF7, 72 hours, 41.67 μM): −23.03%
- Cell death #1 (%) ([1]; MCF7, 72 hours, 125.00 μM): 88.19%
- Cell death #2 (%) ([1]; MCF7, 72 hours, 125.00 μM): 90.54%
- Cell death #3 (%) ([1]; MCF7, 72 hours, 125.00 μM): 89.20%
- Cell death (%) MEAN ([1]; MCF7, 72 hours, 125.00 μM): 89.31%
- cytotoxicity compared with the other test articles [2]: less cytotoxic than dibenzyl butyl lactone derivative enantiomers A and B
- TP Concentration ([2]; human): 230.8 µM
- dTP Concentration ([2]; human): 21.8 µM
- similarity of dTP concentrations between all three compounds ([2]; human): ≤ 2 fold
